Laboratory results reported in patent US20240391885A1, “FORMS OF LINERIXIBAT” (GLAXOSMITHKLINE INTELLECTUAL PROPERTY (NO. 2) LIMITED, priority 2020, published 2024).
Converted amounts (≈) assume the structure as drawn. Values belong to the molecule of their own block, whether it stands above or below them.

What was measured:
[1] = Solubility of linerixibat drug substance over pH 1.2-6.8 at 37±1° C. (Experiment 8a); type: physicochemical
Procedure: The solubility of linerixibat drug substance, in respect of Form I and Form III, was determined over the pH range of 1.2-6.8 at 37±1° C. Eight pH values within this range, including buffers at pH 1.2, 4.5 and 6.8 were evaluated. The therapeutic dose for linerixibat is 40 mg.
• SGF=simulated gastric fluid • BR=Britton Robinson

[2] = Dissolution of linerixibat tablets (USP <711> Apparatus II); type: physicochemical; conditions: at both gastric and intestinal pH (pH 1.2 and pH 6.8)
Procedure: The dissolution procedure developed for Linerixibat Tablets, 40 mg, is determined as directed in USP<711> and the method parameters are presented in Table G. The percentage of dissolved drug is currently determined by gradient reversed-phase HPLC.
The above dissolution method at pH 6.8 was applied to two batches of Linerixibat Tablets, 40 mg and the profiles obtained are shown in FIG. 24.

[3] = Systemic absorption of linerixibat; conditions: in vivo
[4] = Solubility of drug substance samples in biorelevant media and sodium acetate buffer (Experiment 8b); type: physicochemical
Description: Solubility data was obtained for drug substance samples of linerixibat Form I, linerixibat Form III, and additionally for a sample of Form I compressed to 100 MPa which therefore contained an amount of Form III, in order to replicate typical forces encountered during tablet manufacture.
The media used for the drug substance samples were biorelevant media likely to be experienced in the stomach and the intestine, namely Simulated Gastric Fluid (SGF) over an increasing pH range (1.6, 2.0 and 4.0) and Fasted State Simulated Intestinal Fluid (FaSSIF) at a pH of 6.5. Solubility data was also obtained in 50 mM sodium acetate buffer pH 4.5.

[5] = Miniaturised shake flask solubility in Britton-Robinson buffers and biorelevant media (Experiment 8c); type: physicochemical; conditions: 37° C., 1, 4 and 24 hours; FIG. 25
Procedure: Solubility of Form I and Form III was also measured in Britton-Robinson buffers (pH 2-8), determined and compared using a standardised miniaturised shake flask method via an automated platform using a development HPLC method for quantification post centrifugation and filtration. Samples were run at 37° C. and performed as 2 replicate preparations for each pH condition and 4 replicate preparations for each biorelevant media condition at 1, 4 and 24 hours.

[6] = Storage stability of drug substance by HPLC, XRPD and SSNMR; type: physicochemical; conditions: 1 month of storage at 50° C./ambient RH

Solubility ([1]; buffer, 37 °C, pH 1.2, simulated gastric fluid, thermodynamic from solid, pH 1.2 (gastric pH), read-out: solubility): > 1 mg/mL
Solubility ([1]; buffer, 37 °C, pH 6.8, aqueous buffer, thermodynamic from solid, pH 6.8 (intestinal pH), read-out: solubility): > 1 mg/mL
time to full release [2]: 5 min
systemic absorption [3]: minimal systemic absorption
SMILES: CCCC[C@]1(CC)CS(=O)(=O)c2cc(CNC(CC(=O)O)CC(=O)O)c(OC)cc2[C@@H](c2ccccc2)N1 [linerixibat, 3-({[(3R,5R)-3-butyl-3-ethyl-7-(methyloxy)-1,1-dioxido-5-phenyl-2,3,4,5-tetrahydro-1,4-benzothiazepin-8-yl]methyl}amino)pentanedioic acid]

solubility at 1 h ([1]; Britton Robinson buffer, 37 °C, pH 3.7, aqueous buffer, thermodynamic from solid, nominal pH 3.7, BR buffer, 1-hr timepoint): 104 µg/mL (≈ 190 µM)
solubility at 4 h ([1]; Britton Robinson buffer, 37 °C, pH 3.7, aqueous buffer, thermodynamic from solid, nominal pH 3.7, BR buffer, 4-hr timepoint): 121 µg/mL (≈ 221 µM)
solubility at 24 h ([1]; Britton Robinson buffer, 37 °C, pH 3.7, aqueous buffer, thermodynamic from solid, nominal pH 3.7, BR buffer, 24-hr timepoint): 129 µg/mL (≈ 236 µM)
solubility classification ([1]; all pHs in the physiological range except close to the solubility minimum (between pH 3.2 and pH 4.2), high solubility = above 0.16 mg/mL (40 mg in 250 mL)): highly soluble
Solubility ([1]; nominal pH 1.2, SGF, 37° C., 1-hr timepoint): >1 mg/mL
Solubility ([1]; nominal pH 1.2, SGF, 37° C., 4-hr timepoint): >1 mg/mL
Solubility ([1]; nominal pH 1.2, SGF, 37° C., 24-hr timepoint): >1 mg/mL
Solubility ([1]; nominal pH 3.0, BR buffer, 37° C., 1-hr timepoint): 0.166 mg/mL (≈ 304 µM)
Solubility ([1]; nominal pH 3.0, BR buffer, 37° C., 4-hr timepoint): 0.205 mg/mL (≈ 375 µM)
Solubility ([1]; nominal pH 3.0, BR buffer, 37° C., 24-hr timepoint): 0.238 mg/mL (≈ 435 µM)
Solubility ([1]; nominal pH 3.5, BR buffer, 37° C., 1-hr timepoint): 0.103 mg/mL (≈ 188 µM)
Solubility ([1]; nominal pH 3.5, BR buffer, 37° C., 4-hr timepoint): 0.122 mg/mL (≈ 223 µM)
Solubility ([1]; nominal pH 3.5, BR buffer, 37° C., 24-hr timepoint): 0.130 mg/mL (≈ 238 µM)
Solubility ([1]; nominal pH 4.0, BR buffer, 37° C., 1-hr timepoint): 0.119 mg/mL (≈ 218 µM)
Solubility ([1]; nominal pH 4.0, BR buffer, 37° C., 4-hr timepoint): 0.137 mg/mL (≈ 251 µM)
Solubility ([1]; nominal pH 4.0, BR buffer, 37° C., 24-hr timepoint): 0.147 mg/mL (≈ 269 µM)
Solubility ([1]; nominal pH 4.5, Acetate buffer, 37° C., 1-hr timepoint): 0.199 mg/mL (≈ 364 µM)
Solubility ([1]; nominal pH 4.5, Acetate buffer, 37° C., 4-hr timepoint): 0.252 mg/mL (≈ 461 µM)
Solubility ([1]; nominal pH 4.5, Acetate buffer, 37° C., 24-hr timepoint): 0.310 mg/mL (≈ 567 µM)
Solubility ([1]; nominal pH 5.0, BR buffer, 37° C., 1-hr timepoint): 0.342 mg/mL (≈ 626 µM)
Solubility ([1]; nominal pH 5.0, BR buffer, 37° C., 4-hr timepoint): 0.466 mg/mL (≈ 852 µM)
Solubility ([1]; nominal pH 5.0, BR buffer, 37° C., 24-hr timepoint): 0.620 mg/mL (≈ 1130 µM)
Solubility ([1]; nominal pH 6.8, Phosphate buffer, 37° C., 1-hr timepoint): >1 mg/mL
Solubility ([1]; nominal pH 6.8, Phosphate buffer, 37° C., 4-hr timepoint): >1 mg/mL
Solubility ([1]; nominal pH 6.8, Phosphate buffer, 37° C., 24-hr timepoint): >1 mg/mL
difference in solubility between Form I and Form III ([1]; pH 1.2-6.8, 37±1° C.): no significant difference
Solubility ([4]; 50 mM Sodium Acetate Buffer pH 4.5, 1 Hour, listed as Form 3): 0.29 mg/mL (≈ 530 µM)
Solubility ([4]; 50 mM Sodium Acetate Buffer pH 4.5, 4 Hours, listed as Form 3): 0.29 mg/mL (≈ 530 µM)
Solubility ([4]; 50 mM Sodium Acetate Buffer pH 4.5, 24 Hours, listed as Form 3): 0.28 mg/mL (≈ 512 µM)
Solubility ([4]; FaSSIF pH 6.5, 1 Hour, listed as Form 3): 5.2 mg/mL (≈ 9510 µM)
Solubility ([4]; FaSSIF pH 6.5, 4 Hours, listed as Form 3): 5.31 mg/mL (≈ 9710 µM)
Solubility ([4]; FaSSIF pH 6.5, 24 Hours, listed as Form 3): 5.32 mg/mL (≈ 9730 µM)
Solubility ([4]; SGF pH 1.6, 1 Hour, listed as Form 3): 7.54 mg/mL (≈ 13800 µM)
Solubility ([4]; SGF pH 1.6, 4 Hours, listed as Form 3): 7.90 mg/mL (≈ 14500 µM)
Solubility ([4]; SGF pH 1.6, 24 Hours, listed as Form 3): 8.62 mg/mL (≈ 15800 µM)
Solubility ([4]; SGF pH 2.0, 1 Hour): 1.49 mg/mL (≈ 2730 µM)
Solubility ([4]; SGF pH 2.0, 4 Hours, listed as Form 3): 1.58 mg/mL (≈ 2890 µM)
Solubility ([4]; SGF pH 2.0, 24 Hours, listed as Form 3): 1.70 mg/mL (≈ 3110 µM)
Solubility ([4]; SGF pH 4.0, 1 Hour, listed as Form 3): 0.16 mg/mL (≈ 293 µM)
Solubility ([4]; SGF pH 4.0, 4 Hours, listed as Form 3): 0.17 mg/mL (≈ 311 µM)
Solubility ([4]; SGF pH 4.0, 24 Hours, listed as Form 3): 0.19 mg/mL (≈ 348 µM)
solubility comparison in biorelevant media [5]: very similar
SMILES: CCCC[C@]1(CC)CS(=O)(=O)c2cc(CNC(CC(=O)O)CC(=O)O)c(OC)cc2[C@@H](c2ccccc2)N1 [Form III]
solubility comparison of the forms ([4]; all investigated physiologically relevant pH values (1.6 to 6.5)): Forms I and III have very similar solubilities at all investigated physiologically
change of form or drug-related impurity content [6]: Laboratory isolated Form III drug substance demonstrated no change in form
